How the values were obtained:
[1] = system: purine auxotrophic yeast (ade2Δ, fui1Δ); test: [3H]uridine uptake assay, competition with cold adenosine; assay type: cell-based; settings: ade2Δ strain; cold adenosine vs [3H]uridine uptake, 15 min
Method: The radiolabeled uptake assay measures the ability of an unlabeled purine or pyrimidine substrate to inhibit the uptake of radiolabeled substrate into yeast via PfENT1 as previously described. Yeast strains containing PfENT1 (mutant or WT) were grown overnight in SDM media to a final OD600 between 0.2 and 0.5. Purine auxotrophic yeast used as a negative control were grown in YPD media. Yeast were spun down and washed three times with 15 mL phosphate buffered saline (PBS; 137 mM NaCl, 2.7 mM KCl, 10 mM KH2PO4, 10 mM Na2HPO4, pH 7.4). The final volume of yeast in PBS varied but it was diluted to a final OD600 = 0.2. […] For determination of minimal and maximal uptake, yeast strains were incubated without radioactivity or with radioactivity but no cold substrate competition, respectively. […] The amount of radioactivity in each well was measured by liquid scintillation counting using a 1450 MicroBeta TriLux (Perkin Elmer). The counts per minute (cpm) were recorded and technical triplicates were averaged. IC50 values were calculated, and statistical analysis was performed using GraphPad/Prism9 software. […]
Statistical significance was calculated using one-way analysis of variance (ANOVA) with GraphPad/Prism9 software. IC50 values were calculated using the non-linear regression dose-response inhibition log(inhibitor) vs normalized response program. […]

[2] = system: yeast expressing S290C PfENT1; test: 24-h adenosine-dependent growth assay; assay type: cell-based; set-up: key: Mutant strains that did not grow are indicated by (ng, no growth)
Method: (§1) The Bioscreen C (Model #: 61400PRO) machine was used to measure proliferation of yeast expressing either wild type or mutant PfENT1 in 24-h assays. Yeast strains were grown overnight in SDM media plus 1 mM adenine. Yeast were spun down and resuspended in sterile water. Yeast were added into wells of honeycomb plates specific for the Bioscreen C (Fisher Scientific Cat No. #NC9976780) to achieve a final OD600 of 0.05 in the total volume of 150 μl per well of yeast and media. […] Each trial contained technical triplicates of every sample. The honeycomb plates were placed in the Bioscreen C where they were shaken continuously on high for 24-h at 30°C. OD600 was measured every 15 min.
(§2) For calculating the doubling time, the formula used was: Dt=ln(2)/kwherek=thegrowthrate
(§3) The k was calculated in Excel using the OD600 values in the growth curve that represented exponential growth (OD600 between 0.2 and 0.6). Alternatively, this formula can also be used: Dt=ln(2)/([ln(OD2)−ln(OD1)]/t2−t1)

[3] = system: yeast expressing R291C PfENT1; test: 24-h adenosine-dependent growth assay; assay type: cell-based; set-up: key: Mutant strains that did not grow are indicated by (ng, no growth)
Method: as §1, §2, §3

[4] = system: purine auxotrophic yeast (ade2Δ, fui1Δ); test: 24-h adenosine-dependent growth assay; assay type: cell-based; set-up: key: Mutant strains that did not grow are indicated by (ng, no growth); settings: ade2Δ strain
Method: as §1, §2, §3

[5] = system: yeast expressing W53C PfENT1; test: 24-h adenosine-dependent growth assay; assay type: cell-based; set-up: key: Mutant strains that did not grow are indicated by (ng, no growth)
Method: as §1, §2, §3

[6] = system: yeast expressing Q135C PfENT1; test: 24-h adenosine-dependent growth assay; assay type: cell-based; set-up: key: Mutant strains that did not grow are indicated by (ng, no growth)
Method: as §1, §2, §3

[7] = system: yeast expressing D287C PfENT1; test: 24-h adenosine-dependent growth assay; assay type: cell-based; set-up: key: Mutant strains that did not grow are indicated by (ng, no growth)
Method: as §1, §2, §3

[8] = system: yeast expressing N51C PfENT1; test: 24-h adenosine-dependent growth assay; assay type: cell-based; settings: mean±SEM
Method: as §1, §2, §3

[9] = system: yeast expressing F286C PfENT1; test: 24-h adenosine-dependent growth assay; assay type: cell-based
Method: as §1, §2, §3

[10] = system: yeast expressing L50C PfENT1; test: 24-h adenosine-dependent growth assay; assay type: cell-based; settings: for Avg. Doubling time (h) Adenosine growth assay 1 mM: 1 mM adenosine sole purine source; for Avg. Doubling time (h) Adenosine growth assay 1 mM / Avg. Doubling time (h) Adenosine growth assay 2 mM: 24 h, mean±SEM; for Avg. Doubling time (h) Adenosine growth assay 2 mM: 2 mM adenosine sole purine source
Method: as §1, §2, §3

[11] = system: yeast expressing A134C PfENT1; test: 24-h adenosine-dependent growth assay; assay type: cell-based; settings: mean±SEM
Method: as §1, §2, §3

[12] = system: yeast expressing L289C PfENT1; test: 24-h adenosine-dependent growth assay; assay type: cell-based; settings: mean±SEM
Method: as §1, §2, §3

[13] = system: yeast expressing V52C PfENT1; test: 24-h adenosine-dependent growth assay; assay type: cell-based; settings: mean±SEM
Method: as §1, §2, §3

[14] = system: yeast expressing WT PfENT1; test: 24-h adenosine-dependent growth assay; assay type: cell-based; settings: mean±SEM; for Avg. Doubling time (h) Adenosine growth assay 1 mM: 1 mM adenosine sole purine source; for Avg. Doubling time (h) Adenosine growth assay 2 mM: 2 mM adenosine sole purine source
Method: as §1, §2, §3

[15] = system: yeast expressing T136C PfENT1; test: 24-h adenosine-dependent growth assay; assay type: cell-based; settings: mean±SEM
Method: as §1, §2, §3

[16] = system: yeast expressing S48C PfENT1; test: 24-h adenosine-dependent growth assay; assay type: cell-based; settings: mean±SEM
Method: as §1, §2, §3

[17] = system: yeast expressing S49C PfENT1; test: 24-h adenosine-dependent growth assay; assay type: cell-based; settings: mean±SEM
Method: as §1, §2, §3

[18] = system: yeast expressing I137C PfENT1; test: 24-h adenosine-dependent growth assay; assay type: cell-based; settings: mean±SEM
Method: as §1, §2, §3

[19] = system: yeast expressing F288C PfENT1; test: 24-h adenosine-dependent growth assay; assay type: cell-based; settings: mean±SEM
Method: as §1, §2, §3

[20] = system: PfENT1 W53A; settings: yeast expressing W53A, Y190A background; cited from earlier work
[21] = system: PfENT1 R291A; settings: cited from earlier work
[22] = system: PfENT1 D287A; settings: yeast expressing D287A, Y190A background; cited from earlier work
[23] = system: PfENT1 W53A; settings: cited from earlier work
[24] = system: PfENT1 S49A; settings: cited from earlier work
[25] = system: PfENT1 Q135A; settings: yeast expressing Q135A, Y190A background; cited from earlier work
[26] = system: PfENT1 D287A; settings: cited from earlier work
[27] = system: PfENT1 Q135A; settings: cited from earlier work
[28] = system: PfENT1 R291A; settings: yeast expressing R291A, Y190A background; cited from earlier work
[29] = 1 mM adenosine sole purine source
[30] = 2 mM adenosine sole purine source

Which “Average IC50 (μM) Adenosine” value [1] does the source give for `Nc1ncnc2c1ncn2[C@@H]1O[C@H](CO)[C@@H](O)[C@H]1O` [Adenosine, adenosine] here?
The value was “no uptake”.

What about the “Avg. Doubling time (h) Adenosine growth assay 1 mM” value [2, 29] of the same molecule?
The value was “ng”.

What about the “Avg. Doubling time (h) Adenosine growth assay 2 mM” value [2, 30] of the same molecule?
The value was “ng”.

And the “Avg. Doubling time (h) Adenosine growth assay 1 mM” value [3, 29]?
Its value is “ng”.

What about the “Avg. Doubling time (h) Adenosine growth assay 2 mM” value [3, 30] of the same molecule?
Its value is “ng”.

What about the “Avg. Doubling time (h) Adenosine growth assay 1 mM” value ([4]; 1 mM adenosine sole purine source, mean±SEM) of the same molecule?
Its value is “ng”.

What about the “Avg. Doubling time (h) Adenosine growth assay 2 mM” value [4, 30] of the same molecule?
The value was “ng”.

What about the “Avg. Doubling time (h) Adenosine growth assay 1 mM” value [5, 29] of the same molecule?
The value was “ng”.

And the “Avg. Doubling time (h) Adenosine growth assay 2 mM” value [5, 30]?
The value was “ng”.

And the “Avg. Doubling time (h) Adenosine growth assay 1 mM” value [6, 29]?
Its value is “ng”.

And the “Avg. Doubling time (h) Adenosine growth assay 2 mM” value [6, 30]?
The value was “ng”.

What about the “Avg. Doubling time (h) Adenosine growth assay 1 mM” value [7, 29] of the same molecule?
The value was “ng”.

What about the “Avg. Doubling time (h) Adenosine growth assay 2 mM” value [7, 30] of the same molecule?
Its value is “ng”.

What about the “Avg. Doubling time (h) Adenosine growth assay 1 mM” value [8, 29] of the same molecule?
Its value is 3.46 ± 0.26 h.

What about the “Avg. Doubling time (h) Adenosine growth assay 2 mM” value [8, 30] of the same molecule?
Its value is 3.89 ± 0.41 h.

What about the “Avg. Doubling time (h) Adenosine growth assay 1 mM” value [9, 29] of the same molecule?
Its value is “slow growth”.

And the “Avg. Doubling time (h) Adenosine growth assay 2 mM” value [9, 30]?
Its value is “slow growth”.

And the “Avg. Doubling time (h) Adenosine growth assay 1 mM” value [10]?
Its value is 5.83 ± 0.47 h.

And the “Avg. Doubling time (h) Adenosine growth assay 1 mM” value ([10]; listed as adenosine)?
Its value is 5.8 h.

And the “Avg. Doubling time (h) Adenosine growth assay 2 mM” value [10]?
Its value is 7.16 ± 1.21 h.

And the “Avg. Doubling time (h) Adenosine growth assay 2 mM” value ([10]; listed as adenosine)?
The value was 7.2 h.

And the “increase of doubling time compared to WT PfENT1 control” value ([10]; in both 1 mM and 2 mM adenosine)?
Its value is 1.9 fold.

What about the “Avg. Doubling time (h) Adenosine growth assay 1 mM” value [11, 29] of the same molecule?
The value was 4.42 ± 0.25 h.

And the “Avg. Doubling time (h) Adenosine growth assay 2 mM” value [11, 30]?
Its value is 4.09 ± 0.24 h.

And the “Avg. Doubling time (h) Adenosine growth assay 1 mM” value [12, 29]?
Its value is 3.08 ± 0.25 h.

And the “Avg. Doubling time (h) Adenosine growth assay 2 mM” value [12, 30]?
The value was 3.12 ± 0.33 h.

What about the “Avg. Doubling time (h) Adenosine growth assay 1 mM” value [13, 29] of the same molecule?
Its value is 4.20 ± 0.23 h.

And the “Avg. Doubling time (h) Adenosine growth assay 2 mM” value [13, 30]?
The value was 3.78 ± 0.29 h.

And the “Avg. Doubling time (h) Adenosine growth assay 1 mM” value [14]?
Its value is 3.13 ± 0.36 h.

What about the “Avg. Doubling time (h) Adenosine growth assay 1 mM” value ([14]; listed as adenosine) of the same molecule?
The value was 3.1 h.

And the “Avg. Doubling time (h) Adenosine growth assay 2 mM” value [14]?
The value was 3.72 ± 0.21 h.

And the “Avg. Doubling time (h) Adenosine growth assay 2 mM” value ([14]; listed as adenosine)?
Its value is 3.7 h.

And the “Avg. Doubling time (h) Adenosine growth assay 1 mM” value [15, 29]?
The value was 3.12 ± 0.27 h.

What about the “Avg. Doubling time (h) Adenosine growth assay 2 mM” value [15, 30] of the same molecule?
Its value is 3.06 ± 0.09 h.

And the “Avg. Doubling time (h) Adenosine growth assay 1 mM” value [16, 29]?
The value was 3.77 ± 0.17 h.

What about the “Avg. Doubling time (h) Adenosine growth assay 2 mM” value [16, 30] of the same molecule?
Its value is 3.68 ± 0.42 h.

What about the “Avg. Doubling time (h) Adenosine growth assay 1 mM” value [17, 29] of the same molecule?
The value was 3.06 ± 0.28 h.

And the “Avg. Doubling time (h) Adenosine growth assay 2 mM” value [17, 30]?
The value was 2.99 ± 0.16 h.

And the “Avg. Doubling time (h) Adenosine growth assay 1 mM” value [18, 29]?
Its value is 3.99 ± 0.50 h.

What about the “Avg. Doubling time (h) Adenosine growth assay 2 mM” value [18, 30] of the same molecule?
Its value is 3.5 ± 0.16 h.

What about the “Avg. Doubling time (h) Adenosine growth assay 1 mM” value [19, 29] of the same molecule?
Its value is 3.61 ± 0.60 h.

And the “Avg. Doubling time (h) Adenosine growth assay 2 mM” value [19, 30]?
The value was 3.57 ± 0.53 h.

Which “uptake of radioactive inosine” value [20] does the source give for `O=c1[nH]cnc2c1ncn2[C@@H]1O[C@H](CO)[C@@H](O)[C@H]1O` [inosine] here?
Its value is “did not show uptake”.

What about the “inosine binding by ITC” value [21] of the same molecule?
Its value is “bound with lower affinity”.

What about the “uptake of radioactive inosine” value [22] of the same molecule?
Its value is “did not show uptake”.

What about the “inosine binding by ITC” value [23] of the same molecule?
Its value is “bound with lower affinity”.

And the “inosine binding by ITC” value [24]?
Its value is “did not bind”.

And the “uptake of radioactive inosine” value [25]?
The value was “did not show uptake”.

What about the “inosine binding by ITC” value [26] of the same molecule?
The value was “did not bind”.

And the “inosine binding by ITC” value [27]?
Its value is “did not bind”.

What about the “uptake of radioactive inosine” value [28] of the same molecule?
Its value is “did not show uptake”.
